Laboratory results taken from patent US20240368131A1, “OXOINDOLINYL AMIDE DERIVATIVES FOR INHIBITING NLRP3 AND USES THEREOF” (VENTUS THERAPEUTICS U.S. INC., priority 2022, published 2024).

Target: T1, human NLRP3 (Homo sapiens, UniProt Q96P20)
Assay: Human Whole Blood (hWB) NLRP3 Assay (IL-1β MSD)
Type: cell-based
Details: LPS 1 μg/ml 4.5 h, ATP 30 min, class symbols
Procedure: Human whole blood was drawn from healthy volunteers after obtaining written informed consent. Heparin lithium coated tubes were used to collect blood from volunteers. Blood samples were distributed on 96 well plates using 90 μl per well. Priming was performed by adding 5 μl of LPS (O26:B6; Sigma L-2654) at a final concentration of 1 μg/ml for 4.5 hours in a humidified incubator with 37° C., 5% CO2. Thirty minutes prior to NLRP3 activation, 5 μl of a 20× compound solution or vehicle (2% DMSO) was added to each well and plates were incubated on a shaker (450 rpm) in a humidified incubator with 37° C., 5% CO2. Activation was then performed by adding 3.3 μl of a 31× ATP solution per well. At the end of the 30 minutes stimulation, the plates were centrifuged (800 g, 10 min, room temperature) and the plasma from each well was frozen at −80° C. IL-1β levels in the supernatant were analyzed using a mesoscale discovery assay (MSD K151TUK) according to the manufacturers' instructions.
hWB IL-1β Assay: A represents an IC50 value <0.3 μM; B represents an IC50 value ≥0.3 μM and <0.5 μM; C represents an IC50 value ≥0.5 μM and <1.0 μM; D represents an IC50 value >1.0 μM.

T1 sequence (Q96P20 whole entry): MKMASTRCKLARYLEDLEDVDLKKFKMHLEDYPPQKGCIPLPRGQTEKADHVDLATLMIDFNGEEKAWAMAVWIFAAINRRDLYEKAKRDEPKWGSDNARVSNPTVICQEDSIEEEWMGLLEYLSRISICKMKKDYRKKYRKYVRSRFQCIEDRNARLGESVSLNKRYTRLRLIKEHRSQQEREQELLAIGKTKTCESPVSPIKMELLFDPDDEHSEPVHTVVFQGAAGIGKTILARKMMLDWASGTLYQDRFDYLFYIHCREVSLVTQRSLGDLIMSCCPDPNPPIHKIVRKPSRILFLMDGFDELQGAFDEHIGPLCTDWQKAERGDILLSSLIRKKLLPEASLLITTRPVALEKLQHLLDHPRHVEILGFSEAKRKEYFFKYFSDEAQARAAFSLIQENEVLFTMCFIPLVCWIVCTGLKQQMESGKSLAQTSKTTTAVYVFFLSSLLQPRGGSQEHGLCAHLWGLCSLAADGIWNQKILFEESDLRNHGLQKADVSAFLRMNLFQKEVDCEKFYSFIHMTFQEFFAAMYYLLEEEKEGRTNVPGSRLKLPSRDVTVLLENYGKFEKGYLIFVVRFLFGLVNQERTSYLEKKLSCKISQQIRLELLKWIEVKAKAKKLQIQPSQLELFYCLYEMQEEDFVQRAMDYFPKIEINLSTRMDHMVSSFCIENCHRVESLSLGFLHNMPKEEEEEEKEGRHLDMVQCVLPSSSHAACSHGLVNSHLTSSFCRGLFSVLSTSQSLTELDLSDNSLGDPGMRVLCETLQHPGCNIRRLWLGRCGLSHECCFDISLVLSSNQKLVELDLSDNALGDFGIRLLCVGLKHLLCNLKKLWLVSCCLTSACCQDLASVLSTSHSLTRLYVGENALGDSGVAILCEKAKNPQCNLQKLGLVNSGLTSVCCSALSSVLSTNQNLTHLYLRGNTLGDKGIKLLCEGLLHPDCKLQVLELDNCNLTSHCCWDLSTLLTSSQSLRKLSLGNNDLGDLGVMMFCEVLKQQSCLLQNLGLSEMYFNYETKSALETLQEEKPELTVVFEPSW

IC50 [nM]	SMILES
> 1000	C[C@H](NC(=O)CN1C(=O)C(C)(C)c2c(F)c(C(F)(F)F)cc(F)c21)[C@@H](C)CC(=O)O (single isomer, unassigned) [67C*]
300 to 500	C[C@H](CC(=O)O)[C@@H](C)NC(=O)CN1C(=O)C(C)(C)c2c(F)c(C(F)(F)F)cc(F)c21 (single isomer, unassigned) [67D*]

Target: T1, human NLRP3
Assay: Human PBMC NLRP3 Assay (IL-1β release)
Type: cell-based
Set-up: Human PBMCs (Normal): iXCells Cat #10HU-003; host or cells: human PBMCs (normal donors), LPS-primed, nigericin-stimulated
Details: human PBMCs, LPS priming 4 h, nigericin stimulation 1 h; class symbols
Procedure: Reagents: Human PBMCs (Normal): iXCells Cat #10HU-003; RPMI 1640 medium (ATCC modification): ThermoFisher Cat #A1049101 (Complete Media: 10% FBS, 1% Pen/Strep; Assay Media: 1% Pen/Strep; 75 cm^2 cell culture flask: Corning Cat #430641U; 96-well cell culture plates: VWR Cat #10062-900; LPS (E. coli 026:B6): Sigma Cat #L2654, stock 5 mg/mL in PBS; Nigericin sodium salt: Sigma Cat #N7143, stock 5 mg/mL (6.7 mM) in ethanol.
Cryopreserved PBMCs (10×10^6 cells/vial) were rapidly thawed in a 37° C. water bath for 2 min and transferred in 10 mL Complete Media. Cells were then centrifuged at 1200 RPM for 5 min, resuspended in 40 mL of Complete Media, transferred in a 75 cm^2 cell culture flask and incubated overnight at 37° C. with 5% CO2. The next day, PBMCs were centrifuged, resuspended in 30 mL Assay Media (˜3.3×10^5 cells/mL) and distributed at 100 μL/well in a 96-well cell culture plate. 50 μl of Assay Media containing 300 ng/ml of LPS was then added to each well except for the untreated control wells (50 μl Assay Media without LPS). Cells were then primed with LPS for 4 h at 37° C. with 5% CO2. A concentration response curve (CRC) was prepared of 500× test compound in 100% dimethyl sulfoxide (DMSO). The CRC was then diluted 1:25 in Assay Media and then further diluted 1:5 in Assay Media resulting in a final 4× CRC in 0.8% DMSO/Assay Media. 50 μL/well of 4× test compound CRC or vehicle (0.8% DMSO/Assay Media) was then transferred into each well and subsequently incubated for 30 min at 37° C. with 5% CO2. Cells were stimulated by adding 4 μL of 500 μM Nigericin, for 1 h at 37° C. with 5% CO2 Plates were then centrifuged at 1200 RPM for 5 min and 100 μl of the media was transferred to a clean 96-well storage plate and stored at −80° C. until analyzed. Cytokine measurements were performed using the mesoscale platform. Compounds were added 30 minutes before priming the cells with LPS when TNFα was required to be quantified in the cytokine panel to confirm selectivity.
Human PBMC NLRP3 Assay: A represents an IC50 value <0.3 μM; B represents an IC50 value ≥0.3 μM and <0.5 μM; C represents an IC50 value ≥0.5 μM and <1.0 μM; D represents an IC50 value >1.0 μM and <10 μM; E represents an IC50 value >10 μM.

SMILES	IC50 [nM]
CC1(C)C(=O)N(CC(=O)N[C@@H]2CCC[C@@H]2C(=O)O)c2ccc(Br)cc21 (single isomer, unassigned) [52A*]	> 10000
O=C(O)CCCNC(=O)CN1C(=O)C2(CCCC2)c2cc(Br)ccc21 [Compound 5, 4-(2-(5′-bromo-2′-oxospiro[cyclopentane-1,3′-indolin]-1′-yl)acetamido)butanoic acid]	> 10000
Cc1ccc2c(c1)C(C)(C)C(=O)N2CC(=O)NCCCC(=O)O [Compound 7, 4-(2-(3,3,5-trimethyl-2-oxoindolin-1-yl)acetamido)butanoic acid]	1000 to 10000
CC(C)(CCNC(=O)CN1C(=O)C(C)(C)c2cc(Br)ccc21)C(=O)O [Compound 14, 4-(2-(5-bromo-3,3-dimethyl-2-oxoindolin-1-yl)acetamido)-2,2-dimethylbutanoic acid]	1000 to 10000
CC1(C)C(=O)N(C2(C(=O)NCCCC(=O)O)CC2)c2ccc(Br)cc21 [Compound 15, 4-(1-(5-bromo-3,3-dimethyl-2-oxoindolin-1-yl)cyclopropane-1-carboxamido)butanoic acid]	> 10000
CC1(C)C(=O)N(CC(=O)NCCCC(=O)O)c2cc(F)c(Br)cc21 [Compound 20, 4-(2-(5-bromo-6-fluoro-3,3-dimethyl-2-oxoindolin-1-yl)acetamido)butanoic acid]	1000 to 10000
CC1(C)C(=O)N(CC(=O)NCCCC(=O)O)c2ccc(C3CCCC3)cc21 [Compound 25, 4-(2-(5-cyclopentyl-3,3-dimethyl-2-oxoindolin-1-yl)acetamido)butanoic acid]	> 10000
COc1cc(Br)cc2c1N(CC(=O)NCCCC(=O)O)C(=O)C2(C)C [Compound 27, 4-(2-(5-bromo-7-methoxy-3,3-dimethyl-2-oxoindolin-1-yl)acetamido)butanoic acid]	> 10000
CC1(C)C(=O)N(CC(=O)NCCCC(=O)O)c2cc(O)c(Br)cc21 [Compound 36, 4-(2-(5-bromo-6-hydroxy-3,3-dimethyl-2-oxoindolin-1-yl)acetamido)butanoic acid]	> 10000
CC1(C)C(=O)N(CC(=O)NCc2ccccc2C(=O)O)c2ccc(Br)cc21 [Compound 49, 2-((2-(5-bromo-3,3-dimethyl-2-oxoindolin-1-yl)acetamido)methyl)benzoic acid]	> 10000
CC1(C)C(=O)N(CC(=O)NCCCC(=O)O)c2c(C(F)(F)F)cc(Br)cc21 [Compound 50, 4-(2-(5-bromo-3,3-dimethyl-2-oxo-7-(trifluoromethyl)indolin-1-yl)acetamido)butanoic acid]	> 10000

Other lines, results leading:

IC50 [nM]	SMILES
< 300	C[C@@H](CNC(=O)CN1C(=O)C(C)(C)c2cc(Br)cc(O)c21)CC(=O)O (single isomer, unassigned) [42A*]
< 300	C[C@H](CNC(=O)CN1C(=O)C(C)(C)c2cc(Br)cc(O)c21)CC(=O)O (single isomer, unassigned) [42B*]
500 to 1000	O=C(O)CCCNC(=O)CN1C(=O)C2(CC2)c2cc(Br)ccc21 [Compound 6, 4-(2-(5′-bromo-2′-oxospiro[cyclopropane-1,3′-indolin]-1′-yl)acetamido)butanoic acid]
500 to 1000	CC(C)(CCC(=O)O)NC(=O)CN1C(=O)C(C)(C)c2cc(C(F)(F)F)ccc21 [Compound 8, 4-(2-(3,3-dimethyl-2-oxo-5-(trifluoromethyl)indolin-1-yl)acetamido)-4-methylpentanoic acid]
500 to 1000	CC(C)(CCC(=O)O)NC(=O)CN1C(=O)C(C)(C)c2cc(C3CC3)ccc21 [Compound 9, 4-(2-(5-cyclopropyl-3,3-dimethyl-2-oxoindolin-1-yl)acetamido)-4-methylpentanoic acid]
300 to 500	CC(C)c1ccc2c(c1)C(C)(C)C(=O)N2CC(=O)NC(C)(C)CCC(=O)O [Compound 10, 4-(2-(5-isopropyl-3,3-dimethyl-2-oxoindolin-1-yl)acetamido)-4-methylpentanoic acid]
< 300	CC(C)(CNC(=O)CN1C(=O)C(C)(C)c2cc(Br)ccc21)CC(=O)O [Compound 13, 4-(2-(5-bromo-3,3-dimethyl-2-oxoindolin-1-yl)acetamido)-3,3-dimethylbutanoic acid]
< 300	C[C@H](CCC(=O)O)NC(=O)CN1C(=O)C(C)(C)c2cc(Br)cc(O)c21 [Compound 41A, (R)-4-(2-(5-bromo-7-hydroxy-3,3-dimethyl-2-oxoindolin-1-yl)acetamido)pentanoic acid]
< 300	CC1(C)C(=O)N(CC(=O)NC2(CCC(=O)O)CC2)c2c(O)cc(Br)cc21 [Compound 44, 3-(1-(2-(5-bromo-7-hydroxy-3,3-dimethyl-2-oxoindolin-1-yl)acetamido)cyclopropyl)propanoic acid]
300 to 500	O=C(O)CCCNC(=O)CN1C(=O)C(F)(F)c2cc(Br)ccc21 [Compound 51, 4-(2-(5-bromo-3,3-difluoro-2-oxoindolin-1-yl)acetamido)butanoic acid]

Same assay, conditions: human PBMCs, LPS priming, nigericin stimulation; numeric values of Tables C1-C4

SMILES	IC50 [nM]
O=C(O)CCCNC(=O)Cn1ccc2ccccc21 [COMPARATIVE EXAMPLE 1, 4-(2-(1H-indol-1-yl)acetamido)butanoic acid, reference compound]	> 100000
O=C(O)CCCNC(=O)Cn1ccc2cc(Br)ccc21 [COMPARATIVE EXAMPLE 2, 4-(2-(5-bromo-1H-indol-1-yl)acetamido)butanoic acid, reference compound]	7200
O=C(O)CCCNC(=O)CN1C(=O)Cc2cc(Br)ccc21 [COMPARATIVE EXAMPLE 3, 4-(2-(5-bromo-2-oxoindolin-1-yl)acetamido)butanoic acid, reference compound]	47000
O=C(O)CCCNC(=O)CN1C(=O)C(=O)c2cc(Br)ccc21 [COMPARATIVE EXAMPLE 4, 4-(2-(5-bromo-2,3-dioxoindolin-1-yl)acetamido)butanoic acid, reference compound]	> 100000
O=C(O)CCNC(=O)Cn1ccc2cc(Br)ccc21 [COMPARATIVE EXAMPLE 5, 3-(2-(5-bromo-1H-indol-1-yl)acetamido)propanoic acid, reference compound]	> 100000
CC1(C)C(=O)N(CC(=O)NCCCc2nnc[nH]2)c2c(F)cc(C3CC3)c(F)c21 [COMPARATIVE EXAMPLE 6, N-(3-(4H-1,2,4-triazol-3-yl)propyl)-2-(5-cyclopropyl-4,7-difluoro-3,3-dimethyl-2-oxoindolin-1-yl)acetamide, reference compound]	941
CC1(C)C(=O)N(CC(=O)NCCCc2cn[nH]n2)c2c(F)cc(C3CC3)c(F)c21 [COMPARATIVE EXAMPLE 7, N-(3-(2H-1,2,3-triazol-4-yl)propyl)-2-(5-cyclopropyl-4,7-difluoro-3,3-dimethyl-2-oxoindolin-1-yl)acetamide, reference compound]	676

More lines, now with the values ahead:

IC50 [nM]	SMILES
570	O=C(O)CCCNC(=O)CN1C(=O)C2(CC2)c2cc(Br)ccc21 [Compound 6, 4-(2-(5′-bromo-2′-oxospiro[cyclopropane-1,3′-indolin]-1′-yl)acetamido)butanoic acid]
690	CC(C)(CCC(=O)O)NC(=O)CN1C(=O)C(C)(C)c2cc(C(F)(F)F)ccc21 [Compound 8, 4-(2-(3,3-dimethyl-2-oxo-5-(trifluoromethyl)indolin-1-yl)acetamido)-4-methylpentanoic acid]
670	CC(C)(CCC(=O)O)NC(=O)CN1C(=O)C(C)(C)c2cc(C3CC3)ccc21 [Compound 9, 4-(2-(5-cyclopropyl-3,3-dimethyl-2-oxoindolin-1-yl)acetamido)-4-methylpentanoic acid]
110	CC(C)(CNC(=O)CN1C(=O)C(C)(C)c2cc(Br)ccc21)CC(=O)O [Compound 13, 4-(2-(5-bromo-3,3-dimethyl-2-oxoindolin-1-yl)acetamido)-3,3-dimethylbutanoic acid]
410	O=C(O)CCCNC(=O)CN1C(=O)C(F)(F)c2cc(Br)ccc21 [Compound 51, 4-(2-(5-bromo-3,3-difluoro-2-oxoindolin-1-yl)acetamido)butanoic acid]
